How the values were obtained:
[1] = biological target: T1, human FPRL1 (Homo sapiens, UniProt P25090); assay: Measurement test of agonist activity on human FPRL1 (calcium mobilization in HEK293 cells transfected with human FPRL1 and Gα15); type: cell-based; settings: Fluo-4 NW, molar concentration giving 50% maximum activation, read-out: Efficacy EC50
T1 construct: expressed in transfected cells; host or cells: HEK293 (JCRB9068, NIBIO), transient co-transfection with pCMV-script vectors
T1 sequence (P25090 1-351): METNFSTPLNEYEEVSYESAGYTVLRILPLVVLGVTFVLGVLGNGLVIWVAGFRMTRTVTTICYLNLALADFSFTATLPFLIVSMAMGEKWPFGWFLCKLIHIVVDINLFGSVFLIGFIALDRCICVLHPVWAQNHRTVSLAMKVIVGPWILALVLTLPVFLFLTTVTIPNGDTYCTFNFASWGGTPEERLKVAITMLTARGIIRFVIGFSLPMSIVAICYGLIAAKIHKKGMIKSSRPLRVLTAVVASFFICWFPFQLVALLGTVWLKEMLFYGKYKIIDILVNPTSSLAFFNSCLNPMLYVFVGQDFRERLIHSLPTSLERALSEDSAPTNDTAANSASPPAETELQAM
Text: Measurement test of agonist activity on human FPRL1
(1-1) Construction of Human FPRL1 Expression Vector
Human FPRL (SEQ ID NO: 3) was amplified in a PCR reaction from cDNA derived from a monocytic leukemia cell line THP-1 (TIB-202, ATCC) as a template using a forward primer shown in SEQ ID NO: 1, a reverse primer shown in SEQ ID NO: 2, and KOD-plus-ver. 2 (KOD-211, TOYOBO CO., LTD.). […] 2 (LGK-201, TOYOBO CO., LTD.). The ligation product was transformed into DH5α (DNA-901, TOYOBO CO., LTD.), cultured on a 100 μg/mL kanamycin-containing LB medium, and purified with HiSpeed Plasmid Maxi Kit (12662, QIAGEN).
(1-2) Construction of Human Gα15 Expression Vector
2. The amplified PCR product and pCMV-script vector were digested with Hind III and XhoI, and the resultant digest was ligated with Ligation high ver. 2. The ligation product was transformed into DH5α, cultured on a 100 μg/mL kanamycin-containing LB medium, and purified with HiSpeed Plasmid Maxi Kit.
(2-1) Method for Culturing and Subculturing HEK293
HEK293 (JCRB9068, NIBIO) was cultured in an incubator at 5% CO2 and 37° C. using DMEM (11885-092, GIBCO) containing 10% FBS and 1cPenicillin-Streptomycin (15140-122, GIBCO).
(2-2) Introduction of Human FPRL1 and Gal5 Expression Vectors
The cells were inoculated in a Collagen Type 1 coated 6-well plate (4810-010, IWAKI) to 5×10^5 cells/2.5 mL/well and cultured overnight. On the next day, human FPRL1 and Gα15 expression vectors were introduced using Lipofectamine 2000 transfection reagent (11668-019, Life technologies). First, the human FPRL1 and Gal5 expression vectors were diluted with Opti-MEM I Reduced Serum Medium (31985-070, GIBCO) to 2 μg/250 μL/well and Lipofectamine 2000 transfection reagent was diluted with Opti-MEM I Reduced Serum Medium to be 4 μL/250 μL/well. The vectors and reagent were softly diffused, and incubated at room temperature for 5 minutes. The vector solution was mixed with Lipofectamine 2000 transfection reagent in equal amounts. In order to form a complex of the vectors and Lipofectamine 2000 transfection reagent, the mixture was incubated at room temperature for 20 minutes, and added at 500 μL/well to the medium of inoculated cells. The treated cells were cultured for 24 hours, inoculated in Poly-D-Lysine coated 96-well plate (356640, BD Biosciences) at a cell density of 7×10^4 cells/100 μL/well, and cultured for another 24 hours. The resultant cells were used in a measurement test of calcium mobilization in the cells.
(3) Evaluation of Agonist Activity on Human FPRL1 (Test of Calcium Mobilization in Cell)
An appropriate amount of each test compound was first weighed, and dissolved to 10^−2 M by addition of dimethyl sulfoxide (DMSO). […] The plate dispensed with compound solutions was set in Flexstation (Molecular Devices, LLC.) until measurement.
Subsequently, 10 mL of assay buffer and 100 μL of probenecid solution (dissolved by addition of 1 mL of assay buffer to a 250 mM stock) were sufficiently mixed and dissolved in Fluo-4 NW dye mix. The medium of cells inoculated on the previous day was removed, the dissolved Fluo-4 NW dye mix was added in an amount of 90 μL/well, and a reaction was caused in the dark at 37° C. for 45 minutes. The cells after the reaction and chips for addition of the compound were set in Flexstation, and variation in fluorescence intensity over time after addition of the compound was measured [amount of added compound=10 μL (final concentration: 10^−5 M to 10^−12 M), excitation wavelength: 485 nm, measured wavelength: 525 nm, 1.5 sec×54 read]. A value was calculated by subtracting a base value during addition of DMSO from the maximum value of relative fluorescence unit, and analyzed. All the measurement data were analyzed with Prism 4 that was a data analysis tool.

[2] = tested on: neutrophilic infiltration in mouse lung; assay: Effect on lipopolysaccharide-induced neutrophilic infiltration in mouse lung (BAL fluid neutrophil count); type: in vivo; settings: oral, BALB/c male mouse, 30 min before LPS aerosol, BAL neutrophil count after 5 hours relative to control
Procedure: Effect of lipopolysaccharide induction on neutrophilic infiltration in mouse lung A compound to be tested was orally administrated to a mouse (BALB/c, male), and after 30 minutes, the mouse was placed in a plastic container. Lipopolysaccharide (0.3 mg/mL) dissolved in physiological saline was aerosolized with an ultrasonic wave nebulizer (NE-U17, OMRON Corporation), and exposed to the mouse for 10 minutes. After 5 hours, the anesthetized mouse was sacrificed by exsanguination. […] This operation was repeated 3 times, to obtain a BAL fluid. The BAL fluid was centrifuged at 4° C. and ×200 g for 5 minutes, and the pellet was suspended in a physiological saline containing 0.1% BSA. The number of white blood cells was counted using Turks solution with a microscope, and the total white blood cell count was calculated. The white blood cells were fixed on a glass slide using Cytospin 3 (Thermo BioAnalysis Japan K. K.). The cells were stained with Diff-Quik (SYSMEX INTERNATIONAL REAGENTS CO., LTD.), and the number thereof was counted with a microscope, and the neutrophil ratio was calculated. The neutrophil ratio was multiplied by the total white blood cell count to calculate the total neutrophil count. An effect of the compound to be tested represents a percentage (%) of suppression ratio relative to the neutrophil count in a control.

SMILES | EC50 [1] | Suppression Ratio ([2]; dose 1 mg/kg) | Suppression Ratio ([2]; dose 3 mg/kg)
COc1cc(F)c([C@@H]2CN3CCON=C3[C@H]2NC(=O)Nc2ccc(F)cc2)c(F)c1 (relative stereo) [Example 7-7, 1-[(7R*,8S*)-7-(2,6-difluoro-4-methoxyphenyl)-4,6,7,8-tetrahydro-3H-pyrrolo[2,1-c][1,2,4]-oxadiazin-8-yl]-3-(4-fluorophenyl)urea] | 0.02 nM | 97% | 
COc1ccc([C@@H]2COCC2NC(=O)Nc2ccc(Cl)cc2)cc1 (single isomer, unassigned; (+)) [Example 2-1 Isomer A, (+)-cis-1-(4-Chlorophenyl)-3-[4-(4-methoxyphenyl)tetrahydrofuran-3-yl]urea] | 0.54 nM |  | 82%
COc1ccc([C@@H]2COCC2NC(=O)Nc2ccc(F)cc2)cc1 (single isomer, unassigned; (+)) [Example 3-1 Isomer A, (+)-cis-1-(4-Fluorophenyl)-3-[4-(4-methoxyphenyl)tetrahydrofuran-3-yl]urea] | 0.62 nM |  | 80%

Source: patent publication US10525058B2, “Urea derivative or pharmacologically acceptable salt thereof” (KYORIN PHARMACEUTICAL CO., LTD., priority 2015, dated 2020)
